ChEMBL document CHEMBL5038620, “Discovery of a First-in-Class Inhibitor of the Histone Methyltransferase SETD2 Suitable for Preclinical Studies” (ACS Med Chem Lett, 2021)

Assays:
[1] = Stability in mouse hepatocytes assessed as intrinsic clearance measured upto 60 minutes by LC/MS/MS analysis; assay type: ADME, cell-based, Hepatocyte; conditions: read-out: CLH
[2] = Stability in human hepatocytes assessed as intrinsic clearance measured upto 120 minutes by LC/MS/MS analysis; assay type: ADME, cell-based, Hepatocyte; conditions: time >=60 min, read-out: CLH
[3] = Volume of distribution in CD-1 mouse at 1 mg/kg, iv by LC-MS/MS analysis; assay type: ADME, organism-based; conditions: in vivo
[4] = Terminal half life in CD-1 mouse at 1 mg/kg, iv by LC-MS/MS analysis; assay type: ADME, organism-based; conditions: in vivo, read-out: beta t1/2 (converted)
[5] = Clearance in CD-1 mouse at 1 mg/kg, iv by LC-MS/MS analysis; assay type: ADME, organism-based; conditions: in vivo
[6] = Apparent permeability across apical to basal membrane in human Caco-2 cells measured after 2 hrs by LC-MS/MS analysis; assay type: ADME, cell-based

| CLint scaled [1] [mL/min/kg] | CLint scaled [2] [mL/min/kg] | Structure (SMILES) | Vd [3] [L/kg] | half-life [4] [min] | clearance [5] [mL/min/kg] | Papp A→B at 2 h [6] [×10⁻⁶ cm/s] |
| --- | --- | --- | --- | --- | --- | --- |
| 235 | 21.1 | CC.Cc1ccc(F)c2cc(C(=O)N[C@@H]3CCC[C@H](N4CC[C@@H](N(C)S(C)(=O)=O)C4)C3)[nH]c12 | – | – | – | – |
| – | – | Cc1ccc(F)c2cc(C(=O)N[C@@H]3CCC[C@H](N4CC[C@H](N(C)S(C)(=O)=O)C4)C3)[nH]c12 | 1.04 | 42 | 24.2 | 3.2 |
| – | – | CC(=O)N(C)C1CCN(c2cc(F)cc(NC(=O)c3cc4c(F)ccc(C)c4[nH]3)c2)C1 (centres undefined) | 1.04 | 42 | 24.2 | – |
